Source: US8148391B2 (Cephalon, Inc., priority 2006, dated 2012)
Where two headings read alike, the source gives them in different places.

Assays:
[1] = molecular target: T1, baculovirus-expressed ALK (Homo sapiens, UniProt Q9UM73); test: ALK Kinase Assay (ELISA-type, time-resolved fluorescence); assay type: biochemical
T1 construct: host or cells: baculovirus expression system
In short: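 Wells were coated with phospholipase C-γ at 10 μg/mL in Tris-buffered saline. Adding 30 ng/ml enzyme started the reaction, which ran at 37° C for 15 minutes before Eu-N1 PT66 antibody detection. Percent inhibition versus log10 concentration gave IC50 by variable-slope fit.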

[2] = molecular target: T2, c-Met (cytoplasmic domain) (Homo sapiens, UniProt P08581); test: c-Met Kinase Assay (same methods as for ALK, with modifications); assay type: biochemical
T2 construct: 10 ng/mL c-Met (cytoplasmic domain, Invitrogen Corporation #PV3143); purchased Invitrogen Corporation PV3143
In short: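 Steps: coat wells with PLC-γ (10 μg/mL, Tris-buffered saline); add 10 ng/mL c-Met cytoplasmic domain to initiate; incubate 15 min, 37° C; detect phosphoproduct via Eu-N1 PT66 antibody.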

[3] = 1 μM ATP (Km level), 30 ng/ml ALK, 37° C., 15 minutes, read-out: ALK Activity (ALK kinase inhibition, IC50 class)
[4] = 1 μM ATP (Km level), 10 ng/mL c-Met, read-out: cMet Activity (c-Met kinase inhibition, IC50 class)
[5] = ALK kinase inhibition, 1 μM ATP (Km level), read-out: ALK Activity
[6] = c-Met kinase inhibition, 1 μM ATP (Km level), read-out: cMet Activity
[7] = 1 μM ATP (Km level), read-out: ALK Activity (ALK Kinase Inhibition, IC50)
[8] = 1 μM ATP (Km level), read-out: cMet Activity (c-Met Kinase Inhibition, IC50)
[9] = ALK kinase inhibition, 1 μM ATP, read-out: ALK Activity
[10] = c-Met kinase inhibition, 1 μM ATP, read-out: cMet Activity

T1 sequence (Q9UM73 19-1620): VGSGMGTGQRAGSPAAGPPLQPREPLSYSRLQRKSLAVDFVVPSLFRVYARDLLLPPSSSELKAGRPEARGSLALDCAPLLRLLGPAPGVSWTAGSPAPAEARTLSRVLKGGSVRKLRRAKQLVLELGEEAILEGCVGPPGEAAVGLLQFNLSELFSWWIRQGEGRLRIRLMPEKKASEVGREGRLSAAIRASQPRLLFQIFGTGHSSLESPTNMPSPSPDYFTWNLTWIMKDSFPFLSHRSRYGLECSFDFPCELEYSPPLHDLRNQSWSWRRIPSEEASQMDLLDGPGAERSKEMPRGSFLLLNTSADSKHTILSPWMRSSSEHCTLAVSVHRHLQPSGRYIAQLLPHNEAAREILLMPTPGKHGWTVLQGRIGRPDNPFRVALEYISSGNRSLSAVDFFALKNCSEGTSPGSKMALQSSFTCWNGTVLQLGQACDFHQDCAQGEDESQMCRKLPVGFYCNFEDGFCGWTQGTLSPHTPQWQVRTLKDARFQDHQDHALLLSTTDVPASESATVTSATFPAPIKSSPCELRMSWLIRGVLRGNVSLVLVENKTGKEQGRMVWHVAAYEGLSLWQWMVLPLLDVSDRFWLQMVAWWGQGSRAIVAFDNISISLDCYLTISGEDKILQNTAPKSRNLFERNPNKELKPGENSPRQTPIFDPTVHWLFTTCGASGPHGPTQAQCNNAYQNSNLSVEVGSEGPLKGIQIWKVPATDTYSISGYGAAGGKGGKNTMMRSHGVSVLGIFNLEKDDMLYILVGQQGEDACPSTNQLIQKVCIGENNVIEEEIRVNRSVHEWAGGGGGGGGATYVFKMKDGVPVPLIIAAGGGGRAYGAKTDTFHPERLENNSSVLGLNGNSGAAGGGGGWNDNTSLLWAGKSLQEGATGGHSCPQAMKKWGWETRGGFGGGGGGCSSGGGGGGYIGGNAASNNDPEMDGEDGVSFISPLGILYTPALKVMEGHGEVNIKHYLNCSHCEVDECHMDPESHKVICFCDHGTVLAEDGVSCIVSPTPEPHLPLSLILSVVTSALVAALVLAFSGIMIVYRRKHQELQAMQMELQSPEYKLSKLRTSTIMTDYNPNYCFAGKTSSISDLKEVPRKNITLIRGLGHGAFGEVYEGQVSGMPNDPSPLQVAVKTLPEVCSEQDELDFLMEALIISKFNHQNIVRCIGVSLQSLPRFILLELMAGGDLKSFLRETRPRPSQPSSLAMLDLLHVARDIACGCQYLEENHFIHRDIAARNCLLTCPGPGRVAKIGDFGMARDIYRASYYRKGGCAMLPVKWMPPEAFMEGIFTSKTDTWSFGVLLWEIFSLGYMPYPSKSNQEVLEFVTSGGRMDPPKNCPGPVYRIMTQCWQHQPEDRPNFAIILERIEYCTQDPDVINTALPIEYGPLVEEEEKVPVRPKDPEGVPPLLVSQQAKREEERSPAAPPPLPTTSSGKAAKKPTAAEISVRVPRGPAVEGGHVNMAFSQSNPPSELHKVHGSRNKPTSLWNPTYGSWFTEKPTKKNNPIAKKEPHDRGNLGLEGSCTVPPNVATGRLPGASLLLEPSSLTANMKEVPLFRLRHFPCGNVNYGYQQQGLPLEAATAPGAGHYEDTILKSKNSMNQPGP
T2 sequence (P08581 956-1390 limits assumed): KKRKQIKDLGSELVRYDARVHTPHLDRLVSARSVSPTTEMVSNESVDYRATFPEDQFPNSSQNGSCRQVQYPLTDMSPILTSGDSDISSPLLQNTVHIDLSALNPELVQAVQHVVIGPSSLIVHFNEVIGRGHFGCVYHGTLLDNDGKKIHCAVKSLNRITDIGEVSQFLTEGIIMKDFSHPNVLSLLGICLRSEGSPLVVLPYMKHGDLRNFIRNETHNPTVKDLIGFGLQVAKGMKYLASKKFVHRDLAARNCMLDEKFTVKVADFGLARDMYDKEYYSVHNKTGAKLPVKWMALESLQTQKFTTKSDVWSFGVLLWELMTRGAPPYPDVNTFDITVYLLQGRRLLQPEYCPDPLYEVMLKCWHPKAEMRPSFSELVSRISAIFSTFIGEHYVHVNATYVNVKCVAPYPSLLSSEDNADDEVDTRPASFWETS

SMILES: CNC(=O)CN1CCc2ccc(Nc3ncc(Cl)c(N[C@@H]4CCCC[C@H]4NS(C)(=O)=O)n3)cc2CC1 [Example 1374, 2-{7-[5-Chloro-4-((1R,2R)-2-methanesulfonylamino-cyclohexylamino)-pyrimidin-2-ylamino]-1,2,4,5-tetrahydro-benzo[d]azepin-3-yl}-N-methyl-acetamide]
- IC50 [1, 3]: < 100 nM
- IC50 [2, 4]: 100 to 1000 nM

SMILES: CNC(=O)c1cccc(Cl)c1Nc1nc(Nc2ccc3c(c2)N(C)CCNC3)ncc1Cl [Example 460, 3-Chloro-2-[5-chloro-2-(1-methyl-2,3,4,5-tetrahydro-1H-benzo[e][1,4]diazepin-8-ylamino)-pyrimidin-4-ylamino]-N-methyl-benzamide]
- IC50 [1, 5]: 100 to 1000 nM
- IC50 [2, 6]: < 100 nM

SMILES: CNC(=O)c1ccccc1Nc1nc(Nc2ccc3c(c2)CN(CCOC)CCN3C)ncc1Cl [Example 432, 2-{5-Chloro-2-[4-(2-methoxy-ethyl)-1-methyl-2,3,4,5-tetrahydro-1H-benzo[e][1,4]diazepin-7-ylamino]-pyrimidin-4-ylamino}-N-methyl-benzamide]
- IC50 [1, 5]: < 100 nM
- IC50 [2, 6]: < 100 nM

SMILES: Cc1ccnc(-c2ccccc2Nc2nc(Nc3ccc4c(c3)C(C)(C)CCC(=O)N4)ncc2Cl)c1 [Example 1001, 7-{5-Chloro-4-[2-(4-methyl-pyridin-2-yl)-phenylamino]-pyrimidin-2-ylamino}-5,5-dimethyl-1,3,4,5-tetrahydro-benzo[b]azepin-2-one]
- IC50 [1, 7]: 100 to 1000 nM
- IC50 [2, 8]: > 10000 nM

SMILES: CC1(C)CCC(=O)Nc2ccc(Nc3ncc(Cl)c(N[C@@H]4CCCC[C@H]4NS(C)(=O)=O)n3)cc21 [Example 383, N-{(1R,2R)-2-[5-Chloro-2-(5,5-dimethyl-2-oxo-2,3,4,5-tetrahydro-1H-benzo[b]azepin-7-ylamino)-pyrimidin-4-ylamino]-cyclohexyl}-methanesulfonamide]
- IC50 [1, 5]: < 100 nM
- IC50 [2, 6]: 1000 to 10000 nM

SMILES: O=C1CCCc2ccc(Nc3ncc(Cl)c(Nc4ccccc4S(=O)(=O)N4CCCC4)n3)cc2N1 [Example 1731, 8-{5-Chloro-4-[2-(pyrrolidine-1-sulfonyl)-phenylamino]-pyrimidin-2-ylamino}-1,3,4,5-tetrahydro-benzo[b]azepin-2-one]
- IC50 [1, 9]: < 100 nM
- IC50 [2, 10]: < 100 nM

SMILES: COc1cc2c(cc1Nc1ncc(Cl)c(Nc3ccc(N4CCOCC4)c(OC)c3)n1)CCN(CC(=O)N(C)C)CC2 [Example 803, 2-{7-[5-Chloro-4-(3-methoxy-4-morpholin-4-yl-phenylamino)-pyrimidin-2-ylamino]-8-methoxy-1,2,4,5-tetrahydro-benzo[d]azepin-3-yl}-N,N-dimethyl-acetamide]
- IC50 [1, 7]: < 100 nM
- IC50 [2, 8]: > 10000 nM

SMILES: CCN1CCc2ccc(Nc3ncc(Cl)c(Nc4ccc(N5CCOCC5)cc4)n3)cc2CC1 [Example 443, 5-Chloro-N*2*-(3-ethyl-2,3,4,5-tetrahydro-1H-benzo[d]azepin-7-yl)-N*4*-(4-morpholin-4-yl-phenyl)-pyrimidine-2,4-diamine]
- IC50 [1, 5]: < 100 nM
- IC50 [2, 6]: 1000 to 10000 nM

SMILES: CNS(=O)(=O)c1ccccc1Nc1nc(Nc2ccc3c(c2)C2CCC3CN(S(C)(=O)=O)C2)ncc1Cl (stereo not drawn) [Example 286, 2-[5-Chloro-2-(10-methanesulfonyl-10-aza-tricyclo[6.3.2.0*2,7*]trideca-2,4,6-trien-4-ylamino)-pyrimidin-4-ylamino]-N-methyl-benzenesulfonamide]
- IC50 [1, 5]: < 100 nM
- IC50 [2, 6]: < 100 nM

SMILES: CN1C(=O)CCC(C)(C)c2cc(Nc3ncc(Cl)c(N[C@H]4[C@@H](C(N)=O)[C@@H]5C=C[C@H]4C5)n3)ccc21 (relative stereo) [Example 386, (2-exo, 3-exo)-3-[5-Chloro-2-(1,5,5-trimethyl-2-oxo-2,3,4,5-tetrahydro-1H-benzo[b]azepin-7-ylamino)-pyrimidin-4-ylamino]-bicyclo[2.2.1]hept-5-ene-2-carboxylic acid amide]
- IC50 [1, 5]: < 100 nM
- IC50 [2, 6]: 100 to 1000 nM

SMILES: CCN1CC(O)(CO)COc2cc(Nc3ncc(Cl)c(Nc4c(F)cccc4C(=O)NC)n3)ccc21 (stereo not drawn) [Example 1736, 2-[5-Chloro-2-(9-ethyl-7-hydroxy-7-hydroxymethyl-6,7,8,9-tetrahydro-5-oxa-9-aza-benzocyclohepten-3-ylamino)-pyrimidin-4-ylamino]-3-fluoro-N-methyl-benzamide]
- IC50 [1, 9]: 100 to 1000 nM
- IC50 [2, 10]: < 100 nM

SMILES: COc1cc2c(cc1Nc1ncc(Cl)c(Nc3cc(C(N)=O)ccc3OC)n1)CCN(C(=O)CN(C)C)CC2 [Example 1139, 3-{5-Chloro-2-[3-(2-dimethylamino-acetyl)-8-methoxy-2,3,4,5-tetrahydro-1H-benzo[d]azepin-7-ylamino]-pyrimidin-4-ylamino}-4-methoxy-benzamide]
- IC50 [1, 3]: 1000 to 10000 nM
- IC50 [2, 4]: > 10000 nM

SMILES: COCCN1CCc2ccc(Nc3ncc(Cl)c(NC(C)CNS(C)(=O)=O)n3)cc2CC1 (stereo not drawn) [Example 303, N-(2-{5-Chloro-2-[3-(2-methoxy-ethyl)-2,3,4,5-tetrahydro-1H-benzo[d]azepin-7-ylamino]-pyrimidin-4-ylamino}-propyl)-methanesulfonamide]
- IC50 [1, 5]: 100 to 1000 nM
- IC50 [2, 6]: 1000 to 10000 nM

SMILES: CCN1CC(N2CCOCC2)COc2ccc(Nc3ncc(Cl)c(Nc4c(F)cccc4C(=O)NC)n3)cc21 (stereo not drawn) [Example 1722, 2-[5-Chloro-2-(9-ethyl-7-morpholin-4-yl-6,7,8,9-tetrahydro-5-oxa-9-aza-benzocyclohepten-2-ylamino)-pyrimidin-4-ylamino]-3-fluoro-N-methyl-benzamide]
- IC50 [1, 9]: < 100 nM
- IC50 [2, 10]: < 100 nM

SMILES: C#CCN1CC2CCC(C1)c1cc(Nc3ncc(Cl)c(Nc4ccccc4C(=O)NC)n3)ccc12 (stereo not drawn) [Example 279, 2-[5-Chloro-2-(10-prop-2-ynyl-10-aza-tricyclo[6.3.2.0*2,7*]trideca-2,4,6-trien-4-ylamino)-pyrimidin-4-ylamino]-N-methyl-benzamide]
- IC50 [1, 5]: < 100 nM
- IC50 [2, 6]: < 100 nM

SMILES: COc1cc2c(cc1Nc1ncc(Cl)c(Nc3cccc(OCC#N)c3)n1)CCOC(=O)N2C [Example 1510, {3-[5-Chloro-2-(3-methoxy-5-methyl-6-oxo-5,6,8,9-tetrahydro-7-oxa-5-aza-benzocyclohepten-2-ylamino)-pyrimidin-4-ylamino]-phenoxy}-acetonitrile]
- IC50 [1, 9]: < 100 nM
- IC50 [2, 10]: > 10000 nM

SMILES: COCCNC(=O)c1ccccc1Nc1nc(Nc2ccc3c(c2)CCN(CCOC)CC3)ncc1Cl [Example 1398, {5-Chloro-2-[3-(2-methoxy-ethyl)-2,3,4,5-tetrahydro-1H-benzo[d]azepin-7-ylamino]-pyrimidin-4-ylamino}-N-(2-methoxy-ethyl)-benzamide]
- IC50 [1, 3]: < 100 nM
- IC50 [2, 4]: 1000 to 10000 nM

SMILES: COCCN1CCc2ccc(Nc3ncc(Cl)c(N[C@H]4CCC[C@H]4NS(C)(=O)=O)n3)cc2CC1 [Example 1501, N-((1R,2S)-2-{5-Chloro-2-[3-(2-methoxy-ethyl)-2,3,4,5-tetrahydro-1H-benzo[d]azepin-7-ylamino]-pyrimidin-4-ylamino}-cyclopentyl)-methanesulfonamide]
- IC50 [1, 9]: 100 to 1000 nM
- IC50 [2, 10]: 1000 to 10000 nM

SMILES: CNC(=O)c1sc(C(C)(C)C)cc1Nc1nc(Nc2ccc3c(c2)CCOC(=O)N3C)ncc1Cl [Example 1761, 5-tert-Butyl-3-[5-chloro-2-(5-methyl-6-oxo-5,6,8,9-tetrahydro-7-oxa-5-aza-benzocyclohepten-2-ylamino)-pyrimidin-4-ylamino]-thiophene-2-carboxylic acid methylamide]
- IC50 [1, 9]: 1000 to 10000 nM
- IC50 [2, 10]: 1000 to 10000 nM

SMILES: CCN1C(=O)CCCc2cc(Nc3ncc(Cl)c(Nc4ccccc4-n4cccn4)n3)c(OC)cc21 [Example 1317, 7-[5-Chloro-4-(2-pyrazol-1-yl-phenylamino)-pyrimidin-2-ylamino]-1-ethyl-8-methoxy-1,3,4,5-tetrahydro-benzo[b]azepin-2-one]
- IC50 [1, 3]: < 100 nM
- IC50 [2, 4]: > 10000 nM

SMILES: C#CCNC(=O)c1cccc(F)c1Nc1nc(Nc2ccc3c(c2)N(CC)C(=O)CN(C(=O)OCC)C3)ncc1Cl [Example 1876, 8-[5-Chloro-4-(2-fluoro-6-prop-2-ynylcarbamoyl-phenylamino)-pyrimidin-2-ylamino]-1-ethyl-2-oxo-1,2,3,5-tetrahydro-benzo[e][1,4]diazepine-4-carboxylic acid ethyl ester]
- IC50 [1, 5]: 100 to 1000 nM
- IC50 [2, 6]: < 100 nM

SMILES: CCN1C(=O)CCC(C)(C)c2ccc(Nc3ncc(Cl)c(Nc4ccsc4C(=O)NC)n3)cc21 [Example 1597, 3-[5-Chloro-2-(1-ethyl-5,5-dimethyl-2-oxo-2,3,4,5-tetrahydro-1H-benzo[b]azepin-8-ylamino)-pyrimidin-4-ylamino]-thiophene-2-carboxylic acid methylamide]
- IC50 [1, 9]: 1000 to 10000 nM
- IC50 [2, 10]: 1000 to 10000 nM

SMILES: Cc1cnc(-c2cccc(F)c2Nc2nc(Nc3ccc4c(c3)CCOC(=O)N4C)ncc2Cl)o1 [Example 1789, 2-{5-Chloro-4-[2-fluoro-6-(5-methyl-oxazol-2-yl)-phenylamino]-pyrimidin-2-ylamino}-5-methyl-8,9-dihydro-5H-7-oxa-5-aza-benzocyclohepten-6-one]
- IC50 [1, 9]: 100 to 1000 nM
- IC50 [2, 10]: 100 to 1000 nM

SMILES: CCNC(=O)c1ccccc1Nc1nc(Nc2ccc3c(c2)CCN(CCOC)CC3)ncc1Cl [Example 343, 2-{5-Chloro-2-[3-(2-methoxy-ethyl)-2,3,4,5-tetrahydro-1H-benzo[d]azepin-7-ylamino]-pyrimidin-4-ylamino}-N-ethyl-benzamide]
- IC50 [1, 5]: < 100 nM
- IC50 [2, 6]: < 100 nM
